How the values were obtained:
A673 cells = experiment: Inhibition of proliferation of A673 cells (CyQUANT, 72 hour); format: cell-based, human; details: read-out: Inhibition of Proliferation of A673 Cells (calculated IC50)
Method: A673 Cells: A673 cells are a cell line derived from human muscle Ewing's sarcoma. Representative compounds of the invention were tested at different concentrations (from 4 μM to […]; 0.5 log serial dilutions) for their ability to inhibit the proliferation of A673 cells. Known CDK inhibitors dinaciclib or N-((1S,3R)-3-((5-chloro-4-(1H-indol-3-yl)pyrimidin-2-yl)amino)cyclohexyl)-5-((E)-4-(dimethylamino)but-2-enamido)picolinamide and triptolide were used as positive controls. Cells were grown in Dulbecco's Modified Eagle's Medium, +10% FBS+1 mM Sodium Pyruvate. The cells were cultured at 37° C. in a humidified chamber in the presence of 5% CO2. Proliferation assays were conducted over a 72 hour time period. CyQUANT® (Life Technologies, Chicago, Ill. USA) was used to assess the anti-proliferative effects of the compounds following manufacturer's directions and utilizing the reagents supplied with the CyQUANT® kit.

[1] = molecular target: CDK7/Cyclin H/MAT1 complex (Homo sapiens, UniProt P50613); experiment: CDK7 kinase inhibition assay (Caliper/LabChip EZ Reader); format: biochemical; details: CDK7/Cyclin H/MAT1 6 nM, ATP 2 mM, 35 min at 27° C.
CDK7/Cyclin H/MAT1 complex, sequence (P50613 whole entry): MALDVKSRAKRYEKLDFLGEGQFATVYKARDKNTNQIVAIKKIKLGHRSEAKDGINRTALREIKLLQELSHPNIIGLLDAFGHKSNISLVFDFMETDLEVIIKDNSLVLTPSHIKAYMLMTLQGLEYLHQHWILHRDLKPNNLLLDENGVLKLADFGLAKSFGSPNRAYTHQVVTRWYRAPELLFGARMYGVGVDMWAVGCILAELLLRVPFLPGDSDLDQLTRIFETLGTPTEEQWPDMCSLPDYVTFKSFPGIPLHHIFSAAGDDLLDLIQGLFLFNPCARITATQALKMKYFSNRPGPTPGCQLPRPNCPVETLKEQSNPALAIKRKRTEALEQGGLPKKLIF
CDK7/Cyclin H/MAT1 complex, sequence (P51946 whole entry partner): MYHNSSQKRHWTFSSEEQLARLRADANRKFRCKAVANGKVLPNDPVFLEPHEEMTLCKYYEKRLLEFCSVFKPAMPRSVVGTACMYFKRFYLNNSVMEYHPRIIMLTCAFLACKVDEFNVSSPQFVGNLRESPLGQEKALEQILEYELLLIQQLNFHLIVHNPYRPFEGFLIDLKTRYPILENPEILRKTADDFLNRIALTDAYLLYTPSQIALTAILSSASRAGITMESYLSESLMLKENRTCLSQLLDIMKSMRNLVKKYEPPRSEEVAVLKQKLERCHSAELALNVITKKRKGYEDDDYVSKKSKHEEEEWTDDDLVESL
CDK7/Cyclin H/MAT1 complex, sequence (P51948 whole entry partner): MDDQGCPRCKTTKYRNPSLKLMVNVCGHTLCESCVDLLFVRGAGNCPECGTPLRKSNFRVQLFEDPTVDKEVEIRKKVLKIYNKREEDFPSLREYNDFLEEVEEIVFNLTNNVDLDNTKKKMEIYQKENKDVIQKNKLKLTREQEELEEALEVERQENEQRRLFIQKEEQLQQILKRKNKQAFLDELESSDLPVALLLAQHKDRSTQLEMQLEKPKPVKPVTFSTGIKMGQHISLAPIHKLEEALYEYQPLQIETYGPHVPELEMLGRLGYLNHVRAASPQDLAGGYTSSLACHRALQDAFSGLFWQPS
Method: (§1) Compounds of the invention were assayed for inhibition of CDK7, CDK9, CDK12, and CDK2 activity at Biortus Biosciences (Jiangyin, Jiangsu Province, P.R. of China) using kinase assays for each CDK developed with a Caliper/LabChip EZ Reader (Perkin Elmer, Waltham, Mass.).
(§2) Furthermore, the CDK9 inhibition assay used CDK9/Cyclin T1 complex (8 nM) and “5-FAM-CDK9tide” peptide substrate (2 μM, synthesized fluorophore-labeled peptide with the following sequence: 5-FAM-GSRTPMY-NH2 where 5-FAM is defined above and NH2 signifies a C-terminal amide) with 10 mM MgCl2 in the buffer composition listed above. The CDK12 inhibition assay used CDK12 (aa686-1082)/Cyclin K complex (50 nM) and “5-FAM-CDK9tide” (2 μM) as defined above, with 2 mM MgCl2 in the buffer composition above. Additionally, the CDK2 inhibition assay used CDK2/Cyclin E1 complex (0.5 nM) and “5-FAM-CDK7tide” (2 μM) as defined above, with 2 mM MgCl2 in the buffer composition listed above.
(§3) The incubation period at 27° C. for each CDK inhibition assay was chosen such that the fraction of phosphorylated peptide product produced in each assay, relative to the total peptide concentration, was approximately 20% (±5%) for the uninhibited kinase (35 min. for CDK7, 35 min. for CDK2, 3 hr. for CDK12, 15 min. for CDK9).

CDK2/Cyclin E1 complex = CDK2/Cyclin E1 complex (Homo sapiens, UniProt P24941); experiment: CDK2 kinase inhibition assay (Caliper/LabChip EZ Reader); format: biochemical; details: CDK2/Cyclin E1 0.5 nM, ATP 2 mM, 35 min at 27° C.
Method: as §1, §2, §3

[2] = molecular target: T1, CDK12 (aa686-1082)/Cyclin K complex (Homo sapiens, UniProt Q9NYV4); experiment: CDK12 kinase inhibition assay (Caliper/LabChip EZ Reader); format: biochemical; details: CDK12 (aa686-1082)/Cyclin K 50 nM, ATP 2 mM, 3 hr at 27° C.
T1 construct: CDK12 (aa686-1082)/Cyclin K complex
T1 sequence (Q9NYV4 686-1082): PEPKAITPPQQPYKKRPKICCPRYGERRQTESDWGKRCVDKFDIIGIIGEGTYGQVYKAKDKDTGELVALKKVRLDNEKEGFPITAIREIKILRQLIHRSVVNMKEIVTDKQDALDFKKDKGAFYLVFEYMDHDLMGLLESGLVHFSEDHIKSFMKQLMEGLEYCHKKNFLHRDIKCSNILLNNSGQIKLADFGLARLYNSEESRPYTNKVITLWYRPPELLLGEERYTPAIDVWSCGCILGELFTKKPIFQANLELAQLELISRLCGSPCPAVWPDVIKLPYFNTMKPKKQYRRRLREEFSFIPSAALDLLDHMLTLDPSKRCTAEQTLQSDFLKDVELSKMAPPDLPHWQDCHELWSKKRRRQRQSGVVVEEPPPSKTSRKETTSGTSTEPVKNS
T1 sequence (O75909 whole entry partner, the tested form may be a part): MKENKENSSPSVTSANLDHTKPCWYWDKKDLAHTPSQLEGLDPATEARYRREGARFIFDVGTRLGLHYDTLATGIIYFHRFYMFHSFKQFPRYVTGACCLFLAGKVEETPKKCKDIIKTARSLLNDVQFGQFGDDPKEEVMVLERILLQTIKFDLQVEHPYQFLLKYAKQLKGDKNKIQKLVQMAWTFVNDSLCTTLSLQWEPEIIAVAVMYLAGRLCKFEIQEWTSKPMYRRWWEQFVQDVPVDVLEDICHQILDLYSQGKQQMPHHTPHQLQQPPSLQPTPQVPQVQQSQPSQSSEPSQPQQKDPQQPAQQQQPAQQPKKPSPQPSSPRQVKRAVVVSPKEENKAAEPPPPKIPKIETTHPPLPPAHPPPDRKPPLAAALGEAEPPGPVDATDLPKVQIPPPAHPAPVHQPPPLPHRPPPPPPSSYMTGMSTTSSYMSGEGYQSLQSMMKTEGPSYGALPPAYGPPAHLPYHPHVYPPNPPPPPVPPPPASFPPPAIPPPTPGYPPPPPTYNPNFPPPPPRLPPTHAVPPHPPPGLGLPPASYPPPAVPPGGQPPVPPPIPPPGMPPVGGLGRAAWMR
Method: as §1, §2, §3

CDK9/Cyclin T1 complex = CDK9/Cyclin T1 complex (Homo sapiens, UniProt P50750); experiment: CDK9 kinase inhibition assay (Caliper/LabChip EZ Reader); format: biochemical; details: CDK9/Cyclin T1 8 nM, ATP 2 mM, 15 min at 27° C.
CDK9/Cyclin T1 complex, sequence (P50750 whole entry): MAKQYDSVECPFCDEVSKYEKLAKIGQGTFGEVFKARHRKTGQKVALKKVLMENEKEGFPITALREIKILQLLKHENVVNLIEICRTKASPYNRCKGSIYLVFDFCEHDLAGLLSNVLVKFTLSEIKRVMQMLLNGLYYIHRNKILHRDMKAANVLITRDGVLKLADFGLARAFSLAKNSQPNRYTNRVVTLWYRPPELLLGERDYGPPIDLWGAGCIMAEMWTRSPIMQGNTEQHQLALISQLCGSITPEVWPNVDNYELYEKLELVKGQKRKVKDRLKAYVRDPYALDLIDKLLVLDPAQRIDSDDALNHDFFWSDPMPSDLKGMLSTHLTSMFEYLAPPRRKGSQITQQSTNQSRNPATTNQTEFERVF
CDK9/Cyclin T1 complex, sequence (O60563 whole entry partner): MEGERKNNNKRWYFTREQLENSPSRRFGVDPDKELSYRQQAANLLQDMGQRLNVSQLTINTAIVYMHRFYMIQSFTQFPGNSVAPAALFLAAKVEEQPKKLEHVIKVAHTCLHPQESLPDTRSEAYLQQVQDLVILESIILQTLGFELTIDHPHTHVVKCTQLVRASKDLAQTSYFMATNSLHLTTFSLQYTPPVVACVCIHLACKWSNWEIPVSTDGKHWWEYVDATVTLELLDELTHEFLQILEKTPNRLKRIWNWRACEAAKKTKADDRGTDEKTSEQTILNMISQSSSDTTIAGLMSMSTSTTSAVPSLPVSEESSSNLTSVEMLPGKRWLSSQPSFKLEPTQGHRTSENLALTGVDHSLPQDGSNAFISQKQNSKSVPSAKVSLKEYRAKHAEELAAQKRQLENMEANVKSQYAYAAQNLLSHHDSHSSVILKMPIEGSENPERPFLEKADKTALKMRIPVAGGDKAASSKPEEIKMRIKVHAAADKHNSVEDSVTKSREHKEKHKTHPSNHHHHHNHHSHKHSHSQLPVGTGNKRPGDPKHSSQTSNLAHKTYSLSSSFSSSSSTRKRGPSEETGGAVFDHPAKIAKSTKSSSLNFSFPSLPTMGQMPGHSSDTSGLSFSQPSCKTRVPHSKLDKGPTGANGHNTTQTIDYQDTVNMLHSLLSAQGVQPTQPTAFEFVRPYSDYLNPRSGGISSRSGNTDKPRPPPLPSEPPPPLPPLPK
Method: as §1, §2, §3

| SMILES | IC50 (A673 cells) [nM] | IC50 [1] [nM] | IC50 (CDK2/Cyclin E1 complex) [nM] | IC50 [2] [nM] | IC50 (CDK9/Cyclin T1 complex) [nM] |
| --- | --- | --- | --- | --- | --- |
| Cc1cnc(NC2CCCNC2)nc1-c1c[nH]c2ccccc12 (centres unmarked) [Compound 119] | 20 to 200 | 20 to 200 | ≥ 5000 | 200 to 5000 | 200 to 5000 |
| FC1CCNCC1Nc1ncc(Cl)c(-c2c[nH]c3ccccc23)n1 (centres unmarked) [Compound 121] | 20 to 200 | 20 to 200 | 200 to 5000 | 200 to 5000 | 200 to 5000 |
| COCCn1cc(-c2nc(NC3CCCNC3)ncc2Cl)c2ccccc21 (centres unmarked) [Compound 122] | 200 to 5000 | 200 to 5000 | ≥ 5000 | ≥ 5000 | 200 to 5000 |
| COCCn1cc(-c2nc(NC3CCCNC3)ncc2C(F)(F)F)c2ccccc21 (centres unmarked) [Compound 123] | 200 to 5000 | 20 to 200 | ≥ 5000 | ≥ 5000 | 200 to 5000 |
| Cc1cccc2c(-c3nc(NC4CCCNC4)ncc3C(F)(F)F)c[nH]c12 (centres unmarked) [Compound 124] | < 20 | < 20 | 200 to 5000 | 20 to 200 | 200 to 5000 |
| CC1CCNCC1Nc1ncc(Cl)c(-c2c[nH]c3ccccc23)n1 (centres unmarked) [Compound 125] | 200 to 5000 | 20 to 200 | ≥ 5000 | ≥ 5000 | ≥ 5000 |
| CC(C)n1cc(-c2nc(NC3CCCNC3)ncc2Cl)c2ccccc21 (centres unmarked) [Compound 127] | 200 to 5000 | 200 to 5000 | 200 to 5000 | ≥ 5000 | 200 to 5000 |
| Clc1cnc(NC2CN3CCC2CC3)nc1-c1c[nH]c2ccccc12 (centres unmarked) [Compound 131] | 200 to 5000 | ≥ 5000 | ≥ 5000 | ≥ 5000 | ≥ 5000 |
| Clc1cnc(NC2CCCNC2)nc1-c1cn(-c2ccccc2)c2ccccc12 (centres unmarked) [Compound 132] | 200 to 5000 | 200 to 5000 | ≥ 5000 | ≥ 5000 | 200 to 5000 |
| Brc1cnc(N[C@@H]2CCCNC2)nc1-c1c[nH]c2ccccc12 [Compound 133] | < 20 | < 20 | 20 to 200 | 20 to 200 | 200 to 5000 |
| Clc1cnc(N[C@H]2CN3CCC2CC3)nc1-c1c[nH]c2ccccc12 [Compound 134] | 200 to 5000 | ≥ 5000 | ≥ 5000 | ≥ 5000 | ≥ 5000 |
| c1ccc2c(-c3nc(NC4CCCNC4)ncc3C3CC3)c[nH]c2c1 (centres unmarked) [Compound 135] | 200 to 5000 | 20 to 200 | ≥ 5000 | ≥ 5000 | ≥ 5000 |
| CN1CCCC(Nc2ncc(Cl)c(-c3c[nH]c4ccccc34)n2)C1 (centres unmarked) [Compound 136] | 20 to 200 | < 20 | 200 to 5000 | 200 to 5000 | 200 to 5000 |
| CCc1cnc(N[C@H]2CCCNC2)nc1-c1c[nH]c2c(C)cccc12 [Compound 137] | 20 to 200 | < 20 | 200 to 5000 | 200 to 5000 | 200 to 5000 |
| Cc1cccc2c(-c3nc(NC4CCCNC4)ncc3F)c[nH]c12 (centres unmarked) [Compound 138] | 200 to 5000 | 20 to 200 | 200 to 5000 | 200 to 5000 | 200 to 5000 |
| Cc1cccc2c(-c3nc(NC4CCCNC4)ncc3CC(C)C)c[nH]c12 (centres unmarked) [Compound 140] | 200 to 5000 | 200 to 5000 | ≥ 5000 | ≥ 5000 | ≥ 5000 |
| CC(=O)c1cccc2c(-c3nc(NC4CCCNC4)ncc3Cl)c[nH]c12 (centres unmarked) [Compound 142] | < 20 | < 20 | 200 to 5000 | 200 to 5000 | 200 to 5000 |
| CCc1cnc(N[C@H]2CCCNC2)nc1-c1n[nH]c2c(F)cccc12 [Compound 143] | < 20 | < 20 | 200 to 5000 | 200 to 5000 | 200 to 5000 |
| CC(C)CN1CCCC(Nc2ncc(Cl)c(-c3c[nH]c4ccccc34)n2)C1 (centres unmarked) [Compound 145] | 200 to 5000 | 20 to 200 | ≥ 5000 | 200 to 5000 | ≥ 5000 |
| Clc1cnc(NC2CCCNC2)nc1-c1c[nH]c2cccnc12 (centres unmarked) [Compound 146] | 20 to 200 | ≥ 5000 | ≥ 5000 | ≥ 5000 | ≥ 5000 |
| Ic1cnc(NC2CCCNC2)nc1-c1c[nH]c2ccccc12 (centres unmarked) [Compound 147] | < 20 | < 20 | 20 to 200 | 200 to 5000 | 200 to 5000 |
| CC(C)N1CCCC(Nc2ncc(Cl)c(-c3c[nH]c4ccccc34)n2)C1 (centres unmarked) [Compound 148] | 20 to 200 | 20 to 200 | ≥ 5000 | 200 to 5000 | 200 to 5000 |
| COCCN1CCCC(Nc2ncc(Cl)c(-c3c[nH]c4ccccc34)n2)C1 (centres unmarked) [Compound 149] | 20 to 200 | 20 to 200 | 200 to 5000 | 200 to 5000 | 200 to 5000 |
| Clc1cnc(N[C@H]2CCCNC2)nc1-c1c[nH]c2c(N3CCOCC3)cccc12 [Compound 150] | 20 to 200 | 20 to 200 | 200 to 5000 | 200 to 5000 | 200 to 5000 |
| Clc1cnc(NC2CCCNC2)nc1-c1c[nH]c2ccc(N3CCOCC3)cc12 (centres unmarked) [Compound 151] | 20 to 200 | 200 to 5000 | ≥ 5000 | ≥ 5000 | ≥ 5000 |
| Fc1cc2[nH]nc(-c3nc(NC4CCCNC4)ncc3C(F)(F)F)c2cc1F (centres unmarked) [Compound 152] | < 20 | < 20 | 200 to 5000 | 200 to 5000 | 200 to 5000 |
| N#Cc1cccc2c(-c3nc(NC4CCCNC4)ncc3C(F)(F)F)c[nH]c12 (centres unmarked) [Compound 153] | < 20 | < 20 | 20 to 200 | 20 to 200 | 200 to 5000 |
| O=C(O)c1cccc2c(-c3nc(NC4CCCNC4)ncc3Cl)c[nH]c12 (centres unmarked) [Compound 154] | 200 to 5000 | 20 to 200 | ≥ 5000 | 200 to 5000 | 200 to 5000 |

— patent US20230000870A1, “METHODS OF TREATING CANCER IN BIOMARKER-IDENTIFIED PATIENTS WITH INHIBITORS OF CYCLIN-DEPENDENT KINASE 7 (CDK7)” (Syros Pharmaceuticals, Inc., priority 2019, published 2023)
